Measured values: ChEMBL document CHEMBL1201862, “PubChem BioAssay data set” (2004)
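Exposure lasted 48 hours, with cells grown in 96-well plates and compounds tested at five concentrations. GI50 is the concentration that inhibits growth by half.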 Active and inactive are the calls of the source. No stated cut-off is given here; in the data, active = GI50 up to about 1.1 µM and inactive = higher.

Key:
Assay in all cases: NCI anticancer screen, dose series, 48 h
HCC 2998 = tested on: HCC 2998
TK-10 = tested on: TK-10
SN12C = tested on: SN12C
OVCAR-3 = tested on: OVCAR-3
NCI-H460 = tested on: NCI-H460
OVCAR-5 = tested on: OVCAR-5
CAKI-1 = tested on: CAKI-1
SK-MEL-2 = tested on: SK-MEL-2
SK-OV-3 = tested on: SK-OV-3
Malme-3M = tested on: Malme-3M
786-0 = tested on: 786-0
UACC-257 = tested on: UACC-257
HT-29 = tested on: HT-29
UACC-62 = tested on: UACC-62
M14 = tested on: M14
EKVX = tested on: EKVX
HOP-92 = tested on: HOP-92
RPMI-8226 = tested on: RPMI-8226
OVCAR-8 = tested on: OVCAR-8
T47D = tested on: T47D

SMILES: NS(=O)(=O)c1ccc(/N=N/c2c(O)c(C(=O)O)cc3ccccc23)cc1
- GI50 (HCC 2998): > 100 µM (inactive)
- GI50 (TK-10): > 100 µM (inactive)
- GI50 (SN12C): > 100 µM (inactive)
- GI50 (OVCAR-3): > 100 µM (inactive)
- GI50 (NCI-H460): > 100 µM (inactive)
- GI50 (OVCAR-5): > 100 µM (inactive)
- GI50 (CAKI-1): > 100 µM (inactive)
- GI50 (SK-MEL-2): > 100 µM (inactive)
- GI50 (SK-OV-3): > 100 µM (inactive)
- GI50 (Malme-3M): 26.1 µM (inactive)
- GI50 (786-0): > 100 µM (inactive)
- GI50 (UACC-257): > 100 µM (inactive)
- GI50 (HT-29): > 100 µM (inactive)
- GI50 (UACC-62): 37.2 µM (inactive)
- GI50 (M14): > 75.9 µM (inactive)
- GI50 (EKVX): > 100 µM (inactive)
- GI50 (HOP-92): > 100 µM (inactive)
- GI50 (RPMI-8226): > 100 µM (inactive)
- GI50 (OVCAR-8): > 100 µM (inactive)
- GI50 (T47D): > 100 µM (inactive)

SMILES: NC(Cc1ccc2oc3cc(=O)c4ccccc4c-3nc2c1)C(=O)O (stereo not given)
- GI50 (HCC 2998): 16 µM (inactive)
- GI50 (TK-10): 69.7 µM (inactive)
- GI50 (SN12C): 16.4 µM (inactive)
- GI50 (OVCAR-3): 19.6 µM (inactive)
- GI50 (NCI-H460): 11.5 µM (inactive)
- GI50 (OVCAR-5): 66.7 µM (inactive)
- GI50 (CAKI-1): > 79.4 µM (inactive)
- GI50 (SK-MEL-2): 22.6 µM (inactive)
- GI50 (SK-OV-3): > 100 µM (inactive)
- GI50 (Malme-3M): 6.52 µM (inactive)
- GI50 (786-0): 50.2 µM (inactive)
- GI50 (UACC-257): 20.5 µM (inactive)
- GI50 (HT-29): 28.7 µM (inactive)
- GI50 (UACC-62): 11.7 µM (inactive)
- GI50 (M14): 12.5 µM (inactive)
- GI50 (EKVX): > 83.4 µM (inactive)
- GI50 (HOP-92): > 78.7 µM (inactive)
- GI50 (RPMI-8226): 42.2 µM (inactive)
- GI50 (OVCAR-8): 37.4 µM (inactive)
- GI50 (T47D): 38.5 µM (inactive)

SMILES: Cc1nc(Cl)c(Cl)c(Cl)n1
- GI50 (HCC 2998): 1.42 µM (inactive)
- GI50 (TK-10): 1.08 µM (active)
- GI50 (SN12C): 0.284 µM (active)
- GI50 (OVCAR-3): 0.146 µM (active)
- GI50 (NCI-H460): 1.38 µM (inactive)
- GI50 (OVCAR-5): 1.32 µM (inactive)
- GI50 (CAKI-1): < 0.01 µM (active)
- GI50 (SK-MEL-2): 0.51 µM (active)
- GI50 (SK-OV-3): 3.47 µM (inactive)
- GI50 (Malme-3M): 0.202 µM (active)
- GI50 (786-0): 0.409 µM (active)
- GI50 (UACC-257): 0.687 µM (active)
- GI50 (HT-29): 0.104 µM (active)
- GI50 (UACC-62): 0.375 µM (active)
- GI50 (M14): 0.119 µM (active)
- GI50 (EKVX): 0.357 µM (active)
- GI50 (HOP-92): 0.238 µM (active)
- GI50 (RPMI-8226): < 0.0398 µM (active)
- GI50 (OVCAR-8): 0.755 µM (active)
- GI50 (T47D): 0.596 µM (active)

SMILES: O=C(/C=C/c1ccc(O)cc1)c1ccc(O)cc1 [4,4'-DIHYDROXYCHALCONE]
- GI50 (HCC 2998): 24 µM (inactive)
- GI50 (TK-10): 46.9 µM (inactive)
- GI50 (SN12C): 31.2 µM (inactive)
- GI50 (OVCAR-3): 22 µM (inactive)
- GI50 (NCI-H460): 26.8 µM (inactive)
- GI50 (OVCAR-5): 33.3 µM (inactive)
- GI50 (CAKI-1): 18.1 µM (inactive)
- GI50 (SK-MEL-2): 19.6 µM (inactive)
- GI50 (SK-OV-3): 42.6 µM (inactive)
- GI50 (Malme-3M): 27.7 µM (inactive)
- GI50 (786-0): 23.2 µM (inactive)
- GI50 (UACC-257): 29.5 µM (inactive)
- GI50 (HT-29): 19.9 µM (inactive)
- GI50 (UACC-62): 25.5 µM (inactive)
- GI50 (M14): 18.8 µM (inactive)
- GI50 (EKVX): 42.3 µM (inactive)
- GI50 (HOP-92): 31.6 µM (inactive)
- GI50 (RPMI-8226): 11.2 µM (inactive)
- GI50 (OVCAR-8): 16.7 µM (inactive)
- GI50 (T47D): 44.1 µM (inactive)

SMILES: O=[N+]([O-])O [NITRIC ACID]
- GI50 (HCC 2998): > 100 µM (inactive)
- GI50 (TK-10): > 100 µM (inactive)
- GI50 (SN12C): > 100 µM (inactive)
- GI50 (OVCAR-3): > 100 µM (inactive)
- GI50 (NCI-H460): > 100 µM (inactive)
- GI50 (OVCAR-5): > 100 µM (inactive)
- GI50 (CAKI-1): > 100 µM (inactive)
- GI50 (SK-MEL-2): > 100 µM (inactive)
- GI50 (SK-OV-3): > 100 µM (inactive)
- GI50 (Malme-3M): > 100 µM (inactive)
- GI50 (786-0): > 100 µM (inactive)
- GI50 (UACC-257): > 100 µM (inactive)
- GI50 (HT-29): > 100 µM (inactive)
- GI50 (UACC-62): > 100 µM (inactive)
- GI50 (M14): > 100 µM (inactive)
- GI50 (EKVX): > 100 µM (inactive)
- GI50 (HOP-92): > 100 µM (inactive)
- GI50 (RPMI-8226): > 100 µM (inactive)
- GI50 (OVCAR-8): > 100 µM (inactive)
- GI50 (T47D): > 100 µM (inactive)
